From article PMC10817170, “Effect of an NHE3 inhibitor in combination with an NPT2b inhibitor on gastrointestinal phosphate absorption in Rodent models” (PLOS ONE, 2024)
Where “and” joins values, the source holds several entries; their conditions need not be identical. Equal values may be shown once.

Legend:
[1] = tested on: acute phosphate uptake into plasma; design: method as in PMID 35194979; settings: mice; cited from earlier work
[2] = tested on: intestinal phosphate absorption; test: Phosphate absorption in rats: 33P in plasma (15 min) and recovered in gastrointestinal tract (4 h), single agents and combination; format: in vivo; settings: 0.4 mg/kg LY3304000, 10 mg/kg LY3358966 or both
Experimental: We also evaluated the effect of LY3304000 and LY3358966 in combination on phosphate absorption in rats by measuring radioactive phosphate recovered in either plasma or the gastrointestinal (GI) tract. In this combination study, two vehicles were used. One is 1% HEC vehicle for making LY3304000 dosing solution, another is 0.46% PVP-VA vehicle contained in LY3358966 SDD. To make the LY3358966 dosing solution, an appropriate amount of LY3358966-SDD was weighed for a 10 mg/kg API dosing solution with 5 mL/kg dosing volume and dissolved in water. To make the LY3304000 dosing solution, an appropriate amount of LY3304000 was weighed for a 0.4 mg/kg dosing solution with 5 mL/kg dosing volume and dissolved in 1% HEC. The Radiolabeled Phosphate Dosing Solutions was made as described above. Following 4-hour fasting with access to water, male SD rats were orally dosed at 10 mL/kg with either two vehicles, an LY3358966 dosing solution and 1% HEC vehicle, an LY3304000 dosing solution and 0.46% PVP-VA vehicle, or an LY3304000 and LY3358966 dosing solutions, combined 1:1 by volume. Fifteen minutes later, Radiolabeled Phosphate Dosing Solution was orally dosed in a 2 mL volume. Fifteen minutes after the radiolabeled phosphate dose, blood was collected by retro orbital bleeding, and plasma was prepared. Radioactivity (dpm) in 20-μL plasma was measured by scintillation counting. The mole amount of phosphate uptake in the plasma was calculated as described above. Four hours post radioactive phosphate dose, the animals were sacrificed by asphyxiation with CO2 followed by cervical dislocation and then the stomach, small intestine, large intestine, and feces were collected and weighed. The tissues and feces were digested in 20 mL or 10 mL of 1 N NaOH, respectively, overnight at 37°C. A 100 μL sample of the homogenates were dispensed into scintillation vials and mixed with 10 mL of Optiphase Supermax scintillation fluid (PerkinElmer), and radioactivity (dpm) was measured by scintillation counting. Very little radioactivity was detected in the feces at 4 hours post radioactive phosphate dose. The percentage of radiolabeled phosphate recovered in the gastrointestinal tissue was defined as radioactivity (dpm) recovered in each fraction compared to the amount of radioactivity (dpm) administered. The mole amount of phosphate uptake into plasma in vehicle and LY3358966 and LY3304000 alone groups were compared to the LY3358966 and LY3304000 combination group using One-way ANOVA with Dunnett’s multiple comparisons. Percent recovery of ^33P phosphate in the rat gastrointestinal tract was analyzed by two-way analysis of variance (ANOVA) in JMP 12.1 to test for additivity of the effects of LY3304000 and LY3358966 on inhibiting phosphate absorption.

[3] = tested on: acute phosphate uptake into plasma; design: method as in PMID 35194979; settings: rats; cited from earlier work
[4] = tested on: acute phosphate uptake into plasma; test: Acute phosphate uptake in rats, LY3304000 with fixed 1.2 mg/kg LY3358966; format: in vivo; settings: 1.2 mg/kg LY3358966 alone
Experimental: NHE3 inhibitor LY3304000 and NPT2b inhibitor LY3358966 SDD were used in combination to assess their effect on phosphate absorption in rats. To make the LY3358966 dosing solution, an appropriate amount of LY3358966 SDD was weighed for a 1.2 mg/kg API dosing solution with 10 mL/kg dosing volume and dissolved in water. To make the LY3304000 dosing solution, an appropriate amount of LY3304000 was weighed for a 10 mg/kg dose with 10 mL/kg dosing volume and dissolved in 1% HEC vehicle. The subsequent dosing solutions for 3, 1, 0.3, 0.1, 0.03, 0.01, 0.003, and 0.001 mg/kg LY3304000 were prepared by serial dilutions with 1% HEC. Following 12-hour fasting, male SD rats were orally dosed at 10 mL/kg with 1% HEC vehicle, 1.2 mg/kg LY3358966 or increasing doses of LY3304000 with a fixed, 1.2 mg/kg dose of LY3358966. In the vehicle group, the animals were dosed first with 1% HEC immediately followed by water. In the LY3358966 alone group, the animals were first dosed with 1% HEC immediately followed by LY3358966. In the combination groups, the animals were dosed first with LY3304000 immediately followed by LY3358966. Fifteen minutes later, 2 mL Radiolabeled Phosphate Dosing Solution was orally dosed. Fifteen minutes later, blood was collected by cardiac stick, and plasma was prepared. Radioactivity (dpm) in 50-μL plasma was measured by scintillation counting. To measure the total radioactivity dosed to each rat, the radioactivity in two 10-μL samples of the Radiolabeled Phosphate Dosing Solutions was measured by scintillation counting. The mole amount of phosphate uptake was calculated as described above to determine acute phosphate uptake.

[5] = tested on: acute phosphate uptake into plasma; design: method as in PMID 34978760; settings: cited from earlier work
phosphate absorption = tested on: phosphate absorption; design: method as in PMID 30158152; settings: cited from earlier work

Structure (SMILES) | decrease of acute uptake of radiolabeled phosphate into plasma [1] | phosphate uptake into plasma ([2]; 15 min post 33P phosphate, vehicle 166, mean ± SEM, n=8) | inhibition of phosphate uptake into plasma ([2]; 15 min post 33P phosphate, versus vehicle) | percentage of radiolabeled phosphate recovered, Feces ([2]; 4 h) | percentage of radiolabeled phosphate recovered, Large Intestine ([2]; 4 h) | percentage of radiolabeled phosphate recovered, Small Intestine ([2]; 4 h) | percentage of radiolabeled phosphate recovered, Stomach ([2]; 4 h) | percentage of 33P recovered in GI tract, total ([2]; 4 h post 33P phosphate, stomach, small intestine, large intestine and feces, vehicle 25%) | inhibition of acute phosphate uptake [3] | phosphate uptake, % of the vehicle control [4] | phosphate uptake into plasma ([4]; vehicle 710 nmoles) | effect on plasma 33P-phosphate in NHE3 knockout mice ([5]; 60 minutes after dosing 33P-phosphate) | 33P-phosphate levels in plasma, lower than vehicle ([5]; mice, 5 minutes post phosphate dose) | 33P-phosphate levels in plasma, elevated versus vehicle ([5]; mice, 60 min post phosphate dose) | effect on phosphate absorption (phosphate absorption)
CC1(C)CN(C(=O)NCCCCO)CCN1Cc1cccc(C(=O)Nc2sc3c(c2C(=O)Nc2cc(F)c(CCc4ccc(C(=O)O)cc4)c(F)c2)CCCC3)c1 [LY3358966] | over 70% | 108 nmol | 35% | <0.1% | 18.43 +/- 2.03% | 8.98 +/- 0.48% | 4.86 +/- 1.13% | 32 ± 1% and 32% and 32.27 +/- 1.38% | 20–30% | 71% | 504 nmol | – | – | – | –
CN1Cc2c(Cl)cc(Cl)cc2[C@H](c2cccc(S(=O)(=O)NCCOCCOCCNC(=O)NCCCCNC(=O)NCCOCCOCCNS(=O)(=O)c3cccc([C@@H]4CN(C)Cc5c(Cl)cc(Cl)cc54)c3)c2)C1 [tenapanor] | – | – | – | – | – | – | – | – | – | – | – | no effect | about 67% | about 50% | little effect
